Assay results from US6433015B1, “Method for reducing body weight” (IPR-Institute for Pharmaceutical Research AG, priority 1997, dated 2002).

How the values were obtained:
[1] = 7-month study on body weight loss in 22 test persons administered creatine; assay type: in vivo, human
Method: An experiment was carried out with 22 test persons in order to confirm the weight reducing effect of creatine using the dosage according to the invention. The test persons were instructed for the duration of the experiment not to change their day-to-day habits (diet and physical exercise). In order to find the optimal dosage the test persons were initially divided into three groups with a daily dosage of either 100 mg, 300 mg or 600 mg of creatine. […] The data are reported as so-called body mass index (BMI), which is calculated from the body weight in dilograms divided by the height in meters in square.

[2] = cited from earlier work

**Q.** Which “body weight, reported as body mass index (BMI)” value ([1]; 7-month study, 22 test persons, after the 3 months dosage-finding period, single daily dose of 100 mg) does the source give for `CN(CC(=O)O)C(=N)N` [creatine, N-Amidinosarcosine] here?
**A.** Its value is “a steady decrease of body weight occured”.

**Q.** And the “weight loss in dosage-finding period” value ([1]; groups with daily dosage of 100 mg, 300 mg or 600 mg of creatine, after 3 months, diet and physical exercise unchanged)?
**A.** The value was “the group with 100 mg had shown the most noticeable weight loss”.

**Q.** What about the body weight ([2]; daily dosage of at least 15 g to 30 g (0.2 g to 0.4 g per kilogram body weight), physically active test persons, WO 94/02127, Sahelian, Gremion) of the same molecule?
**A.** Its body weight is “enhancement of body weight”.

**Q.** And the fat mass ([2]; high-dose creatine with high muscle strain, Sahelian 1997, Gremion 1995)?
**A.** Its fat mass is “the fat mass is decreased”.
